Measurements reported in article PMC10289903 (Investigational New Drugs, 2023).
Read-outs that look alike come from different tables or passages of the source.

System: patients with locally advanced or metastatic solid tumors
Description: This was a Phase Ib, multicenter, open-label, dose-finding clinical trial (NCT02610075). […] Three types of treatment schedules were investigated: cohorts bid 1, bid 2, qd 1.1, qd 2.1 and qd 3.1 received bid or qd treatment on a 5/9 schedule (5 days on treatment, followed by 9 days off) on a 14-day cycle. Cohorts qd 1.2, qd 2.2, and qd 3.2 received treatment on a 5/2 schedule (5 days on followed by 2 days off for 2 of 3 weeks) in a 21-day cycle. Cohorts qd 2.3 and qd 3.3 received treatment on a weekly 5/2 schedule in a 21-day cycle (Table 1). The highest dose level(s) at which less than one-third of evaluable patients (none of 3 patients or 1 of 6 patients) experienced a dose-limiting toxicity (DLT) was declared the MTD.
The per protocol analysis set was defined as a subset of the full analysis set, excluding subjects having an important protocol deviation, to be used for analyses of efficacy endpoints if appropriate.

[1] = qd 3.3: 300 mg 5/2 weekly (n=2)

C=CCn1c(=O)c2cnc(Nc3ccc(N4CCN(C)CC4)cc3)nc2n1-c1cccc(C(C)(C)O)n1 [adavosertib, Adavosertib]
2 (100) n (%): Nausea (treatment-related AE) [1]
16 (100.0) n (%): Any AE (treatment-emergent) (qd 3.2: 300 mg qd 5/2 (n=16)) | Any treatment-related AE (qd 3.2: 300 mg qd 5/2 (n=16))
8 (50.0) n (%): Anemia (treatment-emergent AE) (qd 3.2: 300 mg qd 5/2 (n=16)) | Any treatment-related grade ≥ 3 AE (qd 3.2: 300 mg qd 5/2 (n=16)) | Fatigue (treatment-related AE) (qd 3.2: 300 mg qd 5/2 (n=16))
0 n (%): Dehydration (treatment-related AE) (qd 3.1: 300 mg qd 5/9 (n=4)) | Diarrhea (treatment-emergent AE) (qd 3.1: 300 mg qd 5/9 (n=4)) | Diarrhea (treatment-related AE) (qd 3.1: 300 mg qd 5/9 (n=4)) | Dyspepsia (treatment-emergent AE) (qd 3.1: 300 mg qd 5/9 (n=4)) | Dyspepsia (treatment-related AE) (qd 3.1: 300 mg qd 5/9 (n=4)) | Fall (treatment-emergent AE) (qd 3.1: 300 mg qd 5/9 (n=4)) | Headache (treatment-emergent AE) (qd 3.1: 300 mg qd 5/9 (n=4)) | Hypokalemia (treatment-emergent AE) (qd 3.1: 300 mg qd 5/9 (n=4)) | Neutropenia (treatment-emergent AE) (qd 3.1: 300 mg qd 5/9 (n=4)) | Neutropenia (treatment-related AE) (qd 3.1: 300 mg qd 5/9 (n=4)) | Pneumonia (treatment-emergent AE) (qd 3.1: 300 mg qd 5/9 (n=4)) | Pyrexia (treatment-emergent AE) (qd 3.1: 300 mg qd 5/9 (n=4)) | Rash (treatment-emergent AE) (qd 3.1: 300 mg qd 5/9 (n=4)) | Urinary tract infection (treatment-emergent AE) (qd 3.1: 300 mg qd 5/9 (n=4)) | Vomiting (treatment-emergent AE) (qd 3.1: 300 mg qd 5/9 (n=4)) | Vomiting (treatment-related AE) (qd 3.1: 300 mg qd 5/9 (n=4)) | Alanine aminotransferase increased (treatment-emergent AE) (qd 3.2: 300 mg qd 5/2 (n=16)) | Constipation (treatment-related AE) (qd 3.2: 300 mg qd 5/2 (n=16)) | Insomnia (treatment-emergent AE) (qd 3.2: 300 mg qd 5/2 (n=16)) | Alanine aminotransferase increased (treatment-emergent AE) [1] | Anemia (treatment-emergent AE) [1] | Anemia (treatment-related AE) [1] | Asthenia (treatment-emergent AE) [1] | Asthenia (treatment-related AE) [1] | Back pain (treatment-emergent AE) [1] | Constipation (treatment-emergent AE) [1] | Constipation (treatment-related AE) [1] | Cough (treatment-emergent AE) [1] | Decreased appetite (treatment-emergent AE) [1] | Decreased appetite (treatment-related AE) [1] | Dehydration (treatment-emergent AE) [1] | Dehydration (treatment-related AE) [1] | Dyspepsia (treatment-emergent AE) [1] | Dyspepsia (treatment-related AE) [1] | Dyspnea (treatment-emergent AE) [1] | Edema peripheral (treatment-emergent AE) [1] | Fall (treatment-emergent AE) [1] | Fatigue (treatment-emergent AE) [1] | Fatigue (treatment-related AE) [1] | Headache (treatment-emergent AE) [1] | Insomnia (treatment-emergent AE) [1] | Muscle spasms (treatment-emergent AE) [1] | Myalgia (treatment-related AE) [1]
7 (43.8) n (%): Dehydration (treatment-emergent AE) (qd 3.2: 300 mg qd 5/2 (n=16)) | Nausea (treatment-related AE) (qd 3.2: 300 mg qd 5/2 (n=16))
1 (6.3) n (%): Dehydration (treatment-related AE) (qd 3.2: 300 mg qd 5/2 (n=16)) | Headache (treatment-emergent AE) (qd 3.2: 300 mg qd 5/2 (n=16)) | Muscle spasms (treatment-emergent AE) (qd 3.2: 300 mg qd 5/2 (n=16)) | Myalgia (treatment-related AE) (qd 3.2: 300 mg qd 5/2 (n=16))
2 (50.0) n (%): Dizziness (treatment-emergent AE) (qd 3.1: 300 mg qd 5/9 (n=4)) | Dyspnea (treatment-emergent AE) (qd 3.1: 300 mg qd 5/9 (n=4)) | Edema peripheral (treatment-emergent AE) (qd 3.1: 300 mg qd 5/9 (n=4)) | Fatigue (treatment-emergent AE) (qd 3.1: 300 mg qd 5/9 (n=4)) | Nausea (treatment-emergent AE) (qd 3.1: 300 mg qd 5/9 (n=4)) | Nausea (treatment-related AE) (qd 3.1: 300 mg qd 5/9 (n=4))
3 (18.8) n (%): Dyspnea (treatment-emergent AE) (qd 3.2: 300 mg qd 5/2 (n=16)) | Fall (treatment-emergent AE) (qd 3.2: 300 mg qd 5/2 (n=16)) | Myalgia (treatment-emergent AE) (qd 3.2: 300 mg qd 5/2 (n=16)) | Pyrexia (treatment-emergent AE) (qd 3.2: 300 mg qd 5/2 (n=16)) | Thrombocytopenia (treatment-emergent AE) (qd 3.2: 300 mg qd 5/2 (n=16)) | Thrombocytopenia (treatment-related AE) (qd 3.2: 300 mg qd 5/2 (n=16)) | Urinary tract infection (treatment-emergent AE) (qd 3.2: 300 mg qd 5/2 (n=16))
1 (50.0) n (%): Abdominal pain (treatment-emergent AE) [1] | Abdominal pain (treatment-related AE) [1] | Any grade ≥ 3 AE [1] | Any treatment-related grade ≥ 3 AE [1] | Dizziness (treatment-emergent AE) [1] | Hypokalemia (treatment-emergent AE) [1] | Myalgia (treatment-emergent AE) [1] | Neutropenia (treatment-emergent AE) [1] | Neutropenia (treatment-related AE) [1]
12 (75.0) n (%): Any grade ≥ 3 AE (qd 3.2: 300 mg qd 5/2 (n=16))
6 (37.5) n (%): Anemia (treatment-related AE) (qd 3.2: 300 mg qd 5/2 (n=16))
5 (31.3) n (%): Decreased appetite (treatment-emergent AE) (qd 3.2: 300 mg qd 5/2 (n=16)) | Vomiting (treatment-emergent AE) (qd 3.2: 300 mg qd 5/2 (n=16))
1 (25.0) n (%): Dehydration (treatment-emergent AE) (qd 3.1: 300 mg qd 5/9 (n=4)) | Fatigue (treatment-related AE) (qd 3.1: 300 mg qd 5/9 (n=4)) | Insomnia (treatment-emergent AE) (qd 3.1: 300 mg qd 5/9 (n=4)) | Muscle spasms (treatment-emergent AE) (qd 3.1: 300 mg qd 5/9 (n=4)) | Myalgia (treatment-emergent AE) (qd 3.1: 300 mg qd 5/9 (n=4)) | Myalgia (treatment-related AE) (qd 3.1: 300 mg qd 5/9 (n=4)) | Thrombocytopenia (treatment-emergent AE) (qd 3.1: 300 mg qd 5/9 (n=4)) | Thrombocytopenia (treatment-related AE) (qd 3.1: 300 mg qd 5/9 (n=4))
2 (100.0) n (%): Any AE (treatment-emergent) [1] | Any treatment-related AE [1] | Diarrhea (treatment-emergent AE) [1] | Diarrhea (treatment-related AE) [1] | Nausea (treatment-emergent AE) [1]
4 (25.0) n (%): Abdominal pain (treatment-emergent AE) (qd 3.2: 300 mg qd 5/2 (n=16)) | Asthenia (treatment-emergent AE) (qd 3.2: 300 mg qd 5/2 (n=16)) | Back pain (treatment-emergent AE) (qd 3.2: 300 mg qd 5/2 (n=16)) | Constipation (treatment-emergent AE) (qd 3.2: 300 mg qd 5/2 (n=16)) | Decreased appetite (treatment-related AE) (qd 3.2: 300 mg qd 5/2 (n=16)) | Dizziness (treatment-emergent AE) (qd 3.2: 300 mg qd 5/2 (n=16)) | Edema peripheral (treatment-emergent AE) (qd 3.2: 300 mg qd 5/2 (n=16)) | Hypokalemia (treatment-emergent AE) (qd 3.2: 300 mg qd 5/2 (n=16)) | Neutropenia (treatment-emergent AE) (qd 3.2: 300 mg qd 5/2 (n=16)) | Neutropenia (treatment-related AE) (qd 3.2: 300 mg qd 5/2 (n=16)) | Pneumonia (treatment-emergent AE) (qd 3.2: 300 mg qd 5/2 (n=16)) | Vomiting (treatment-related AE) (qd 3.2: 300 mg qd 5/2 (n=16))
2 (12.5) n (%): Abdominal pain (treatment-related AE) (qd 3.2: 300 mg qd 5/2 (n=16)) | Asthenia (treatment-related AE) (qd 3.2: 300 mg qd 5/2 (n=16)) | Cough (treatment-emergent AE) (qd 3.2: 300 mg qd 5/2 (n=16)) | Dyspepsia (treatment-emergent AE) (qd 3.2: 300 mg qd 5/2 (n=16)) | Dyspepsia (treatment-related AE) (qd 3.2: 300 mg qd 5/2 (n=16)) | Rash (treatment-emergent AE) (qd 3.2: 300 mg qd 5/2 (n=16))
9 (56.3) n (%): Diarrhea (treatment-emergent AE) (qd 3.2: 300 mg qd 5/2 (n=16)) | Diarrhea (treatment-related AE) (qd 3.2: 300 mg qd 5/2 (n=16)) | Fatigue (treatment-emergent AE) (qd 3.2: 300 mg qd 5/2 (n=16)) | Nausea (treatment-emergent AE) (qd 3.2: 300 mg qd 5/2 (n=16))
